Measurements reported in patent publication US11167039B2, “MET antibody drug conjugates” (priority 2016, dated 2021).
“Also recorded” adds a separate entry of the source.

Assays:
[1] = test system: Su.86.86; assay: Cell killing, Su.86.86; type: cell-based, human; set-up: key: Sensitive; Resistant; settings: Su.86.86, PANC Ca
Experimental: (§1) Briefly described, 2-3×10^3 cells/well in 100 μL of culture medium may be plated in 96 well plates and incubated overnight at 37° C., 5% CO2. The MET-ADCs, MET antibody(ies), control MMAE or control hIgG4 conjugated to MMAE with cysteine conjugation antibody(ies) may be diluted 1:3 in serum-free culture medium starting from 100 nM (final) in 50 μL as 3× concentrations to the HT-29 cells. At the end of an additional 5-6 days of cell growth at 37° C. in a humidified incubator with 5% CO2, the plates may be equilibrated to room temperature for 30 minutes and 100 μL/well of CellTiter-Glo® reagent (Promega Corp., Fitchburg, Wis.) may then be added to assess cell viability. Cell viability may be determined by measuring luminescence.
(§2) Various tumor cell lines and normal human cells may be tested for MET-ADC induced cell killing activity essentially as described above in Example 10 as assessed for MET receptor density. MET cell surface density was determined by indirect immunofluorescence staining of cell surface antigens on cultured cells using QIFIKIT (Dako). […] Following a forty-five minute incubation, cells may be incubated for 1 hour on ice with FITC conjugated antibody diluted 1:50 in FACS buffer. Then cells may be washed and receptor numbers may be determined by indirect immunofluorescence staining of the QIFIKIT beads using a Becton Dickinson LSRII flow cytometer.

[2] = test system: Cal27; assay: Cell killing, Cal27; type: cell-based, human; set-up: key: Sensitive; Resistant; settings: Cal27, head and neck cancer
Experimental: as §1, §2

[3] = test system: BxPC-3 xenograft; assay: BxPC-3 pancreatic cancer xenograft model; type: in vivo, mouse; settings: vs control hIgG4-Lys-ADC
Experimental: (§3) Female athymic nude mice age 6- to 7-weeks old are available commercially, including from Harlan Laboratories (Indianapolis, Ind.). The mice are allowed to acclimate for one week and fed ad libitum on a normal low fat (4.5%) diet, which may be continued for the duration of the study. Tumor cells may be purchased from ATCC and may be cultured in cell culture media such as RPMI 1640 (Life Technologies) with L-glutamine, 25 mM HEPES supplemented with 10% FBS and 1 mM Na Pyruvate. Cells may be detached, washed with serum free medium and then resuspended at a final concentration of 50×10^6 cells/mL in serum free RPMI 1640. Tumor cells, approximately 5×10^6, may be injected subcutaneously in the rear flank of subject mice in a 1:1 mixture of serum free growth medium and Matrigel (Becton Dickinson, Bedford, Mass.). Tumor and body weight measurements may be performed twice weekly. Prior to treatment, mice can be randomized based on tumor size using a randomization algorithm. Treatments may be started when the average tumor volume reaches 100 mm^3. […]
(§4) MET-ADCs and control hIgG4-MMAE may be prepared in Phosphate Buffered Saline (PBS) prior to dose. Tumor size may be determined by caliper measurements. […] Log volume data can be analyzed with two-way repeated measures ANOVA by time and treatment using SAS PROC MIXED software (SAS Institutes Inc, Cary, N.C.). […]

[4] = test system: humen fresh naïve PBMC; assay: Cell killing, fresh naïve PBMC; type: cell-based, human; set-up: key: Sensitive; Resistant; settings: 3 donors
Experimental: as §1, §2

[5] = test system: humen fresh activated PBMC; assay: Cell killing, fresh activated PBMC; type: cell-based, human; set-up: key: Sensitive; Resistant; settings: 3 donors
Experimental: as §1, §2

[6] = test system: Panc-1; assay: Cell killing, Panc-1; type: cell-based, human; set-up: key: Sensitive; Resistant; settings: Panc-1, PANC Ca
Experimental: as §1, §2

[7] = test system: GEO; assay: Cell killing, GEO; type: cell-based, human; set-up: key: Sensitive; Resistant; settings: Colorectal Ca
Experimental: as §1, §2

[8] = test system: SNU869; assay: Cell killing, SNU869; type: cell-based, human; set-up: key: Sensitive; Resistant; settings: SNU869, Cholangiocarcinoma
Experimental: as §1, §2

[9] = test system: EBC-1; assay: Cell killing, EBC-1; type: cell-based, human; set-up: key: Sensitive; Resistant; settings: EBC-1, NSCLC
Experimental: as §1, §2

[10] = test system: pan-AKT phosphorylation (pAKT) in Caki-1 cells; assay: Phosphor-AKT bioassay for MET agonist activity in Caki-1 cells; type: cell-based; settings: 5 μg/mL
Experimental: Because it has been reported that MET agonistic antibodies increased hepatocyte proliferation and toxicity, a phosphor-AKT assay may be used to test MET-ADCs for MET agonist activity. Briefly stated, Caki-1 cells may be starved overnight in serum-free medium with 0.1% BSA and then treated with ADCs or naked MET antibodies at 5 μg/mL for the desired durations. Cell lysates may be analyzed for phosphorylation of pan-AKT by MSD ELISA, for example.

[11] = test system: humen fresh hepatocyte; assay: Cell killing, fresh hepatocyte; type: cell-based, human; set-up: key: Sensitive; Resistant
Experimental: as §1, §2

[12] = test system: HuAEC; assay: Cell killing, non-tumor HuAEC; type: cell-based, human; set-up: key: Sensitive; Resistant; settings: aortic endothelia cell
Experimental: as §1, §2

[13] = test system: CFPAC-1; assay: Cell killing, CFPAC-1; type: cell-based, human; set-up: key: Sensitive; Resistant; settings: CFPAC-1, PANC Ca
Experimental: as §1, §2

[14] = test system: HCC827; assay: Cell killing, HCC827; type: cell-based, human; set-up: key: Sensitive; Resistant; settings: HCC827, NSCLC
Experimental: as §1, §2

[15] = test system: AOSMC; assay: Cell killing, non-tumor AOSMC; type: cell-based, human; set-up: key: Sensitive; Resistant; settings: aortic smooth muscule cell
Experimental: as §1, §2

[16] = test system: SNU1196; assay: Cell killing, SNU1196; type: cell-based, human; set-up: key: Sensitive; Resistant; settings: SNU1196, Cholangiocarcinoma
Experimental: as §1, §2

[17] = test system: KP-4 xenograft; assay: KP-4 pancreatic cancer xenograft model; type: in vivo, mouse; settings: vs control hIgG4-Lys-ADC
Experimental: as §3, §4

[18] = test system: KP-4; assay: Cell killing, KP-4; type: cell-based, human; set-up: key: Sensitive; Resistant; settings: KP-4, PANC Ca
Experimental: as §1, §2

[19] = test system: H441; assay: Cell killing, H441; type: cell-based, human; set-up: key: Sensitive; Resistant; settings: H441, NSCLC
Experimental: as §1, §2

[20] = test system: MET expressing tumor cells; assay: Correlation of tumor cell MET expression level and sensitivity to MET-ADC; type: cell-based
Experimental: as §1, §2

MET-ADC#1: emibetuzumab lysine-conjugated via (2,5-dioxopyrrolidin-1-yl) 2-azidoacetate and Octyne-β-Glucn-MMAE
Sensitive/ Resistant [1]: R | Sensitive/ Resistant [2]: S | anti-tumor activity [3]: dramatic anti-tumor activity | Sensitive/ Resistant [4]: R | Sensitive/ Resistant [5]: R | Sensitive/ Resistant [6]: R | Sensitive/ Resistant [7]: R | Sensitive/ Resistant [8]: S | Sensitive/ Resistant [9]: S | MET agonist activity (induction of pan-AKT phosphorylation) [10]: same low to no agonist activity as its unconjugated parental antibody, emibetuzumab; also recorded: does not have increased agonist activity as compared with emibetuzumab | Sensitive/ Resistant [11]: R | Sensitive/ Resistant [12]: R | Sensitive/ Resistant [13]: R | Sensitive/ Resistant [14]: S | Sensitive/ Resistant [15]: R | Sensitive/ Resistant [16]: R | anti-tumor activity [17]: dramatic anti-tumor activity | Sensitive/ Resistant [18]: S | Sensitive/ Resistant [19]: S | killing activity compared with MET-ADC #6 ([20]; similar experiments using other cells): superior killing activity than MET-ADC #6 | approximate threshold of MET cell surface density for tumor cell killing ([20]; tumor cells sensitive to MMAE, not secreting HGF): > 32,000 receptor per cells
